Data as given in patent publication US20050245489A1, “Chromene-containing compounds with anti-tubulin and vascular targeting activity” (priority 2004, published 2005).
Values after ≈ are worked out from the molar mass of the structure shown.

How the values were obtained:
[1] = system: BXPC-3 (pancreas) cancer cell line; experiment: In vitro growth inhibition (SRB), BXPC-3; format: cell-based, human; details: 48 hours; for GI50: Homo sapiens
Experimental: (§1) Newly prepared compounds were evaluated for cytotoxic activity against a variety of cell lines derived from human tumors using an assay system similar to the National Cancer Institute procedure previously described (Monks et al, J. Natl. Cancer Inst., 1991). Briefly, the cell suspensions, diluted according to the particular cell type and the expected target cell density (5,000-40,000 cells per well based on cell growth characteristics), were added by pipet (100 μl) to 96-well microtiter plates. Inoculates were allowed a preincubation time of 24-28 hours at 37° C. for stabilization. Incubation with the inhibitor compounds lasted for 48 hours in 5% CO2 atmosphere and 100% humidity. Determination of cell growth was performed by in situ fixation of cells, followed by staining with a protein-binding dye sulforhodamine B (SRB), which binds to the basic amino acids of cellular macromolecules. The solubilized stain was measured spectrophotometrically.
(§2) Several compounds were evaluated for cytotoxic activity against […] P388 leukemia cell lines. The effective dose or ED50 value (defined as the effective dosage required to inhibit 50% of cell growth) was measured. These and additional compounds were evaluated in terms of growth inhibitory activity against several other human cancer cell lines including: central nervous system (“CNS”, SF-268), pancreas (BXPC-3), non-small cell lung cancer (“lung-NSC”, NCI-H460), breast (MCF-7), colon (KM20L2), ovarian (OVCAR-3), and prostate (DU-145). The growth inhibition GI50 (defined as the dosage required to inhibit tumor cell growth by 50%) is listed for each cell line.

[2] = system: KM20L2 (colon) cancer cell line; experiment: In vitro growth inhibition (SRB), KM20L2; format: cell-based, human; details: for GI50: Homo sapiens, KM-20L2, 48 hours
Experimental: as §1, §2

[3] = system: SF-268 (CNS) cancer cell line; experiment: In vitro growth inhibition (SRB), SF-268; format: cell-based, human; details: 48 hours; for GI50: Homo sapiens
Experimental: as §1, §2

[4] = system: DU-145 (prostate) cancer cell line; experiment: In vitro growth inhibition (SRB), DU-145; format: cell-based, human; details: 48 hours; for GI50: Homo sapiens
Experimental: as §1, §2

[5] = system: NCI-H460 (lung-NSC) cancer cell line; experiment: In vitro growth inhibition (SRB), NCI-H460; format: cell-based, human; details: 48 hours; for GI50: Homo sapiens
Experimental: as §1, §2

[6] = system: MCF-7 (breast) cancer cell line; experiment: In vitro growth inhibition (SRB), MCF-7; format: cell-based, human; details: for GI50: Homo sapiens, MCF7, 48 hours
Experimental: as §1, §2

[7] = system: MHEC-5T hemangioendothelioma tumor; experiment: Inhibition of tumor blood flow, Fluorescent Bead Assay; format: in vivo, SCID mice; details: 24 hours post-treatment, vessel area per tumor tissue area as percentage of control
Experimental: The antivascular effects of the chromene phosphate prodrug were assessed in tumor-bearing mice using a Fluorescent Bead Assay. A MHEC-5T hemangioendothelioma tumor model was established by subcutaneous injection of 0.5×10^6 cultured transformed cell murine myocardial vascular endothelial cell line (“MHEC5-T”) cells into the right flank of Fox Chase CB-17 Severe Combined Immunodeficient (“SCID”) mice. […] At 24 hours post-treatment, mice were injected intravenously with 0.25 ml of diluted FluoSphere beads (1:6 in physiological saline) in the tail vein, sacrificed after 3 minutes, and tumor was excised for cryosectioning. Tumor cryosections at a thickness of 8 um were directly examined using quantitative fluorescent microscopy. Blood vessels were indicated by blue fluorescence from injected beads. For quantification, image analysis of 3 sections from three tumors treated in each group were examined and vascular shutdown was expressed as vessel area (mm^2) per tumor tissue area (mm^2) as a percentage of the control (“% VAPM”).

P388 leukemia cell lines = experiment: In vitro cytotoxicity (SRB) against P388 leukemia cell line; format: cell-based, mouse; details: 48 hours incubation
Experimental: as §1
Several compounds were evaluated for cytotoxic activity against […] P388 leukemia cell lines. […] These and additional compounds were evaluated in terms of growth inhibitory activity against several other human cancer cell lines including: central nervous system (“CNS”, SF-268), pancreas (BXPC-3), non-small cell lung cancer (“lung-NSC”, NCI-H460), breast (MCF-7), colon (KM20L2), ovarian (OVCAR-3), and prostate (DU-145). […]

purified tubulin = experiment: In vitro inhibition of tubulin polymerization; format: biochemical; details: purified bovine brain tubulin 1.5 mg/ml, 15 min preincubation at 37° C., GTP-induced, 350 nm
Experimental: IC50 values for tubulin polymerization were determined according to a previously described procedure (Bai et al., Cancer Research, 1996). Purified tubulin is obtained from bovine brain cells as previously described (Hamel and Lin, Biochemistry, 1984). Various amounts of inhibitor were preincubated for 15 minutes at 37° C. with purified tubulin. After the incubation period, the reaction was cooled and GTP was added to induce tubulin polymerization. Polymerization was then monitored in a Gilford spectrophotometer at 350 nm. The final reaction mixtures (0.25 ml) contained 1.5 mg/ml tubulin, 0.6 mg/ml microtubule-associated proteins (MAPs), 0.5 mM GTP, […], 4% DMSO and 0.1M 4-morpholineethanesulfonate buffer (MES, pH 6.4). IC50 is the amount of inhibitor needed to inhibit tubulin polymerization 50% with respect to the amount of […] that occurs in the absence of inhibitor.

Compound | GI50 [1] | GI50 [2] | GI50 [3] | GI50 [4] | GI50 [5] | GI50 [6] | GI50 for Cell Line BXPC-3 [1] | GI50 for Cell Line KM20L2 ([2]; 48 hours) | % VAPM at 10 mg/kg dose ([7]; 10 mg/kg single i.p. dose) | % VAPM at 100 mg/kg dose ([7]; 100 mg/kg single i.p. dose) | ED50 for P-388 Cell Line (P388 leukemia cell lines) | GI50 for Cell Line SF-268 [3] | GI50 for Cell Line DU-145 [4] | GI50 for Cell Line NCI-H460 [5] | GI50 for Cell Line MCF-7 ([6]; 48 hours) | IC50 (purified tubulin)
COc1ccc2c(c1)OCC(C(=O)c1cc(OC)c(OC)c(OC)c1)=C2 [Compound 8, 3-(3′, 4′, 5′-Trimethoxybenzoyl)-7-methoxy-2H-chromene] | 0.27 µg/mL (≈ 0.758 µM) | 0.47 µg/mL (≈ 1.32 µM) | 0.32 µg/mL (≈ 0.898 µM) | 0.26 µg/mL (≈ 0.73 µM) | 0.3 µg/mL (≈ 0.842 µM) | 0.3 µg/mL (≈ 0.842 µM) |  |  |  |  |  |  |  |  |  | 
3-(3′,4′,5′-Trimethoxybezoyl)-7-methoxy-2H-chromene-phosphate salt [Compound 7] |  |  |  |  |  |  | 0.44 µg/mL | 3.5 µg/mL | 57% | 33% | 0.173 µg/mL | 0.034 µg/mL | 0.18 µg/mL | 0.14 µg/mL | 0.056 µg/mL | 
COc1ccc2c(c1O)OCC(C(=O)c1cc(OC)c(OC)c(OC)c1)=C2 [Compound 5, 3-(3′,4′,5′-Trimethoxybezoyl)-7-methoxy-8-hydroxy-2H-chromene] | 3.5 µg/mL (≈ 9.4 µM) | 3.2 µg/mL (≈ 8.59 µM) | 0.022 µg/mL (≈ 0.0591 µM) | 0.049 µg/mL (≈ 0.132 µM) | 0.46 µg/mL (≈ 1.24 µM) | 0.0055 µg/mL (≈ 0.0148 µM) |  |  |  |  |  |  |  |  |  | 
COc1cc2c(cc1O)C=C(C(=O)c1cc(OC)c(OC)c(OC)c1)CO2 [Compound 9, 3-(3′, 4′, 5′-Trimethoxybenzoyl)-6-hydroxy-7-methoxy-2H-chromene] | 0.27 µg/mL (≈ 0.725 µM) | 2.3 µg/mL (≈ 6.18 µM) | 0.45 µg/mL (≈ 1.21 µM) | 0.16 µg/mL (≈ 0.43 µM) | 0.32 µg/mL (≈ 0.859 µM) | 0.069 µg/mL (≈ 0.185 µM) |  |  |  |  | 0.25 µg/mL |  |  |  |  | 1000 to 4000 nM
